In the experiment the target is T1, aldehyde oxidase 1 (AOX1) (Homo sapiens, UniProt Q06278).
T1 sequence (Q06278 1-1338): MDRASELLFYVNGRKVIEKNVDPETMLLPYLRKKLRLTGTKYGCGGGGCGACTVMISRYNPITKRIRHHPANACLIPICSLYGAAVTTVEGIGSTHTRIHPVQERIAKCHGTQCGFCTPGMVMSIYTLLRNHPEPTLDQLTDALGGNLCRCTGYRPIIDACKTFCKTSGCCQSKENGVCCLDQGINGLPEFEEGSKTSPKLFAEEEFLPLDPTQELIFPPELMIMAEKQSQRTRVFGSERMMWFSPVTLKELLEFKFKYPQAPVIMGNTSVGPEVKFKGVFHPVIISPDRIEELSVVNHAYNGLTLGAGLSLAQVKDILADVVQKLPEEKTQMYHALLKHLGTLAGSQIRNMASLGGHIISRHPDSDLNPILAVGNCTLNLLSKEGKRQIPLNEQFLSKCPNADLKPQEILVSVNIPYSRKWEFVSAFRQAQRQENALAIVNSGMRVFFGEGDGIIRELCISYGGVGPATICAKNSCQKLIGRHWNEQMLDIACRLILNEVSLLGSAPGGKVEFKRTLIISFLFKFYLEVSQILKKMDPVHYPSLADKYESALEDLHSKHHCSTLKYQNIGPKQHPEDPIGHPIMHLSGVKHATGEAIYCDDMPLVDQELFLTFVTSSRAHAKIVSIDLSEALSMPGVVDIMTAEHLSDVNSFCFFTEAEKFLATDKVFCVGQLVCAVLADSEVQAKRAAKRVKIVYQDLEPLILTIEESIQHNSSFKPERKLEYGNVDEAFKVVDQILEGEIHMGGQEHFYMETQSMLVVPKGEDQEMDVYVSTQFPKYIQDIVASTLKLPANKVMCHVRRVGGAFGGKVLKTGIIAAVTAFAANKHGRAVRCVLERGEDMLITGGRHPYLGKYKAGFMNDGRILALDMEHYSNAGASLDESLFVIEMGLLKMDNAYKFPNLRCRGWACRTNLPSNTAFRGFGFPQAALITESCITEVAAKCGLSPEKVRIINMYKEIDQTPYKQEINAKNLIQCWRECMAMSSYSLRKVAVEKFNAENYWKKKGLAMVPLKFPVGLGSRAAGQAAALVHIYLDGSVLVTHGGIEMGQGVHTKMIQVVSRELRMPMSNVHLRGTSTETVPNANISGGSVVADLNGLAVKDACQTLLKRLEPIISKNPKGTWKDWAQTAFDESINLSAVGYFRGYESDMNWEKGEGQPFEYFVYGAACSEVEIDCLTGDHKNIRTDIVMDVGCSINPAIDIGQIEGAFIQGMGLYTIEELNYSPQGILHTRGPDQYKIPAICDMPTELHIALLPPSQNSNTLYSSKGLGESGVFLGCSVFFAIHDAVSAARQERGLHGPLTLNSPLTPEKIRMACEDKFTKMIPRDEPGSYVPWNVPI
The experiment is described as follows: SPR. Type of experiment: binding.

SMILES strings stand for the structures.

The compound `CNC(=O)c1cc(Oc2ccc(NC(=O)Nc3ccc(Cl)c(C(F)(F)F)c3)c(F)c2)ccn1` [regorafenib] registered a Kd of 42.7 µM.

In general, Kd refers to the concentration at which binding is half-saturated.
